Assay results reported in the NIST ThermoML archive (doi:10.1016/j.jct.2016.09.030).

Assay: xn = mol fraction of the nth substance listed
Conditions: 100 kPa, Liquid; for viscosity: Concentric cylinders viscometry; for mass density: Vibrating tube method

CCCCCCCC(=O)OCC [ethyl octanoate] + CC(C)CCO
Conditions	mass density [kg/m3]	viscosity [mPa·s]
288.15 K, x1 = 0.1	822.09	3.559
288.15 K, x1 = 0.2001	830.4	2.806
288.15 K, x1 = 0.3	837.58	2.382
288.15 K, x1 = 0.4	843.9	2.117
288.15 K, x1 = 0.5001	849.54	1.951
288.15 K, x1 = 0.5999	854.63	1.856
288.15 K, x1 = 0.7003	859.29	1.759
288.15 K, x1 = 0.7998	863.5	1.716
288.15 K, x1 = 0.9001	867.37	1.687
288.15 K, x1 = 1	870.88	1.686
293.15 K, x1 = 0.1	818.23	3.06
293.15 K, x1 = 0.2001	826.44	2.439
293.15 K, x1 = 0.3	833.53	2.11
293.15 K, x1 = 0.4	839.78	1.891
293.15 K, x1 = 0.5001	845.38	1.752
293.15 K, x1 = 0.5999	850.42	1.673
293.15 K, x1 = 0.7003	855.04	1.593
293.15 K, x1 = 0.7998	859.23	1.557
293.15 K, x1 = 0.9001	863.07	1.534
293.15 K, x1 = 1	866.58	1.537
298.15 K, x1 = 0.1	814.36	2.684
298.15 K, x1 = 0.2001	822.46	2.177
298.15 K, x1 = 0.3	829.47	1.885
298.15 K, x1 = 0.4	835.66	1.702
298.15 K, x1 = 0.5001	841.2	1.586
298.15 K, x1 = 0.5999	846.2	1.518
298.15 K, x1 = 0.7003	850.78	1.451
298.15 K, x1 = 0.7998	854.94	1.422
298.15 K, x1 = 0.9001	858.77	1.404
298.15 K, x1 = 1	862.28	1.41
303.15 K, x1 = 0.1	810.47	2.351
303.15 K, x1 = 0.2001	818.46	1.936
303.15 K, x1 = 0.3	825.39	1.693
303.15 K, x1 = 0.4	831.52	1.537
303.15 K, x1 = 0.5001	837.01	1.44
303.15 K, x1 = 0.5999	841.96	1.385
303.15 K, x1 = 0.7003	846.52	1.327
303.15 K, x1 = 0.7998	850.66	1.305
303.15 K, x1 = 0.9001	854.47	1.292
303.15 K, x1 = 1	857.98	1.298
308.15 K, x1 = 0.1	806.56	2.077
308.15 K, x1 = 0.2001	814.45	1.73
308.15 K, x1 = 0.3	821.3	1.527
308.15 K, x1 = 0.4	827.36	1.398
308.15 K, x1 = 0.5001	832.81	1.315
308.15 K, x1 = 0.5999	837.72	1.267
308.15 K, x1 = 0.7003	842.25	1.221
308.15 K, x1 = 0.7998	846.36	1.202
308.15 K, x1 = 0.9001	850.16	1.195
308.15 K, x1 = 1	853.68	1.2
313.15 K, x1 = 0.1	802.62	1.845
313.15 K, x1 = 0.2001	810.42	1.559
313.15 K, x1 = 0.3	817.19	1.389
313.15 K, x1 = 0.4	823.19	1.281
313.15 K, x1 = 0.5001	828.58	1.211
313.15 K, x1 = 0.5999	833.46	1.17
313.15 K, x1 = 0.7003	837.96	1.132
313.15 K, x1 = 0.7998	842.05	1.116
313.15 K, x1 = 0.9001	845.85	1.112
313.15 K, x1 = 1	849.37	1.118
318.15 K, x1 = 0.1	798.65	1.639
318.15 K, x1 = 0.2001	806.35	1.401
318.15 K, x1 = 0.3	813.06	1.258
318.15 K, x1 = 0.4	819	1.167
318.15 K, x1 = 0.5001	824.35	1.108
318.15 K, x1 = 0.5999	829.19	1.074
318.15 K, x1 = 0.7003	833.67	1.042
318.15 K, x1 = 0.7998	837.74	1.03
318.15 K, x1 = 0.9001	841.53	1.028
318.15 K, x1 = 1	845.06	1.035
323.15 K, x1 = 0.1	794.65	1.48
323.15 K, x1 = 0.2001	802.26	1.281
323.15 K, x1 = 0.3	808.9	1.157
323.15 K, x1 = 0.4	814.79	1.078
323.15 K, x1 = 0.5001	820.1	1.028
323.15 K, x1 = 0.5999	824.91	0.9986
323.15 K, x1 = 0.7003	829.36	0.9718
323.15 K, x1 = 0.7998	833.43	0.9628
323.15 K, x1 = 0.9001	837.21	0.9653
323.15 K, x1 = 1	840.74	0.9708
